How the values were obtained:
in vitro [1] = settings: human, microsomes, pH 7.4
HBV = experiment: Preliminary screening of anti-HBV activity; type: cell-based, hepatitis B virus; settings: inhibition of HBsAg and HBeAg expression, HepG2.2.15 cells
in vitro [2] = settings: human, microsomes, pH 7.4; remark: listed apart in the source
duck hepatitis B virus = settings: in vivo; cited from earlier work
hepatic fibrosis = settings: 50 mg/kg or 100 mg/kg, by increasing phospho-FOXO1 expression; cited from earlier work
Newcastle disease virus = settings: cited from earlier work

Row | Structure (SMILES) | half-life (in vitro [1]) [h] | anti-HBV activity (in words) (HBV) | half-life (in vitro [2]) [h] | levels of HBsAg and HBeAg in duck serum (duck hepatitis B virus) | hepatic fibrosis (hepatic fibrosis) | Newcastle disease virus replication (Newcastle disease virus)
1 | O=c1ccc2ccc(O)cc2o1 [7-hydroxycoumarin, reference compound] | 0.263 | – | – | – | – | –
2 | Cc1nccn1CCCCOc1cc2oc(=O)ccc2cc1O [Compound 6b, 6-Hydroxyl-7-(4-(2-methylimidazole-1-yl)butoxy)-2H-benzopyran-2-one] | > 5 | moderate anti-HBV activity | > 5 | – | – | –
3 | Cc1nccn1CCCCCOc1cc2oc(=O)ccc2cc1O [Compound 6c, 6-Hydroxyl-7-(5-(2-methylimidazole-1-yl)pentyloxy)-2H-benzopyran-2-one] | > 5 | moderate anti-HBV activity | > 5 | – | – | –
4 | Cc1nccn1CCCCCCOc1cc2oc(=O)ccc2cc1O [Compound 6d, 6-Hydroxyl-7-(6-(2-methylimidazole-1-yl)hexyloxy)-2H-benzopyran-2-one] | > 5 | – | > 5 | – | – | –
5 | O=c1ccc2cc(O)c(O)cc2o1 [Esculetin, 6,7-dihydroxy-2-H-1-benzopyran-2-one] | – | – | – | can reduce the levels of HBsAg and hepatitis B e antigen (HBeAg) in duck serum | improvement in hepatic fibrosis | inhibited Newcastle disease virus replication well
6 | C[C@]12CC[C@H]3[C@@H](CCC4=CC(=O)CC[C@@]43C)[C@@H]1CC[C@@H]2O [testosterone, reference compound] | – | – | 0.4 | – | – | –
